Data from patent US5574062A, “Coumarin derivative and use thereof” (Morinaga Milk Industry Co., Ltd., priority 1993, dated 1996).
“And” between values parts separate entries of the source, which are not always exact repeats. Equal values may be shown once. Read-outs that look alike come from different tables or passages of the source.

What was measured:
[1] = biological target: T1, 5-lipoxygenase (Rattus norvegicus, UniProt P12527); experiment: 5-lipoxygenase inhibition assay (RBL-1 supernatant, arachidonic acid, HPLC of 5-HETE); assay type: biochemical, rat (basophilic leukemia cells RBL-1, ATCC CRL1378)
T1 construct: host or cells: RBL-1 (rat basophilic leukemia cells)
T1 sequence (P12527 1-673): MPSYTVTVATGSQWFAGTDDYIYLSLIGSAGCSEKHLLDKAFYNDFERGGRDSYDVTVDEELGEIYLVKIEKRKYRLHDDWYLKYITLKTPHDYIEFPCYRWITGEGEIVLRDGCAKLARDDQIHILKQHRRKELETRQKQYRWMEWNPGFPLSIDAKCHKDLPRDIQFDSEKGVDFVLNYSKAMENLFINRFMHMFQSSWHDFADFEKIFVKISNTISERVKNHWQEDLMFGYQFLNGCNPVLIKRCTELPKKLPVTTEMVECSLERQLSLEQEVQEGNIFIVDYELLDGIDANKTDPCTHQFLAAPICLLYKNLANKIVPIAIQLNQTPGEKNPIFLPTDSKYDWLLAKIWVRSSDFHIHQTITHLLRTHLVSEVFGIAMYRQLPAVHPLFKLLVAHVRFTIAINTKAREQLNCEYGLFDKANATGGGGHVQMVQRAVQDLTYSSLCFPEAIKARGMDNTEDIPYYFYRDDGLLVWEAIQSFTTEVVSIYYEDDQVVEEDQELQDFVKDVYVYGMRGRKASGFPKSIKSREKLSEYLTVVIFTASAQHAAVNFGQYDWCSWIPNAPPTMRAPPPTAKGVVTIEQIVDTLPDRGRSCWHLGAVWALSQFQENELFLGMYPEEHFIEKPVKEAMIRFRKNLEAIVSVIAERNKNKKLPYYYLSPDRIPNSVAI
Experimental: Rat basophilic leukemia cells (RBL-1, ATCC CRL1378) were cultured in Dulbecco modified Eagle's medium containing 10% new-born bovine serum.
Cultured cells were collected and washed twice with a 50 mM Tris-buffered saline (containing 154 mM sodium chloride, pH: 7.4, hereinafter described as TBS). The cell suspension (4×10^7 cells/ml) was then sonicated and centrifuged at 10,000×g for 10 minutes.
The resultant supernatant was used to prepare an assay solution.
To an aliquot (15 μl) of the enzyme solution (40 mU/ml equivalent) was added 185 μl of TBS, 50 μl of a 2 mM adenosine triphosphate in TBS, 50 μl of a 12 mM calcium chloride in TBS, 1 μl of a 3 mM indomethacin in ethanol solution, 1 μl of an aqueous 300 mM reduced glutathione solution, and 3 μl of varied concentrated test compounds solution in ethanol. The resultant mixture was incubated at 37° C. for 5 minutes. Subsequently, 3 μl of a 2.5 mM arachidonic acid solution in ethanol was added to incubate the mixture for 2 minutes at 37° C. The reaction was ceased by the addition of 600 μl of methanol. After being centrifuged at 10,000×g for 5 minutes, 5-hydroxyeicosatetraenoic acid recovered in the supernatant was separated with a reverse phase high-performance liquid chromatography equipped with a C-18 column and measured the absorption of diene at 234 nm to quantify the activity of the enzyme.
Using the compounds of the present invention prepared in the same manner as in Examples 1-30, and Examples 33-36 as test samples and known baicalein (purchased from Wako Junyaku Kogyo) represented by the following formula 30 as a control: [drawing 34] the tests were performed for dose dependent inhibition to estimate IC50 values
It was prepared in the same method as in Test Example 2.
They were measured in the same method as in Test Example 2.

[2] = biological target: T2, 12-lipoxygenase (Rattus norvegicus, UniProt F1LQ70); experiment: 12-lipoxygenase inhibition assay (rat platelet supernatant, arachidonic acid, HPLC of 12-HETE); assay type: biochemical, Sprague Dawley male rat (platelets); conditions: for maximum inhibition ratio of 12-lipoxygenase / inhibition at 10 µM: at a compound concentration of 10^-5 M, IC50 not obtained; for maximum inhibition ratio of 12-lipoxygenase: 10 µM; for inhibition at 10 µM: read-out: maximum inhibition ratio of 12-lipoxygenase
T2 construct: The platelets were then sonicated at 4° C. and centrifuged at 100,000×g for 30 minutes to obtain a supernatant as a 12-lipoxygenase enzyme solution; from tissue; host or cells: Sprague Dawley rat platelets (from aortic blood), sonicated, 100,000 x g supernatant
T2 sequence (F1LQ70 1-663): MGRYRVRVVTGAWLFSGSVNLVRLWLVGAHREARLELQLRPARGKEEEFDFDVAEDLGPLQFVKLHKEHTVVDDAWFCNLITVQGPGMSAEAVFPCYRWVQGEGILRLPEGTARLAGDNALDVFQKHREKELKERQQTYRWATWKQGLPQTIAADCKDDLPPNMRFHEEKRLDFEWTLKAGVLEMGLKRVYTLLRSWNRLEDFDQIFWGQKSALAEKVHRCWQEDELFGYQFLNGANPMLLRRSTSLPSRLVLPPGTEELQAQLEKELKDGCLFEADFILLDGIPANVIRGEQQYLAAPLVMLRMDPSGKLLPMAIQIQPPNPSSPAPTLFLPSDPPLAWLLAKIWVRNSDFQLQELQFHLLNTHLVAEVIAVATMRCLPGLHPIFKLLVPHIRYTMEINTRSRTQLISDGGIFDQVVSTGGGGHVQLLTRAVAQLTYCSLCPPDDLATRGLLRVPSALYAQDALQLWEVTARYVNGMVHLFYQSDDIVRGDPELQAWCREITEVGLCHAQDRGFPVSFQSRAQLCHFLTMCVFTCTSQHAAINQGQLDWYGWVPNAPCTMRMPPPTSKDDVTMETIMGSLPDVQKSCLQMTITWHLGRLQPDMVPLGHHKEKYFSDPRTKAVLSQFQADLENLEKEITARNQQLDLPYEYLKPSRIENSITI
Experimental: A Sprague Dawley male rat was anesthetized with ether and bled from abdominal aorta using a syringe filled with about one-tenth volume of 3.8% sodium citrate. Blood was centrifuged at 180×g for 15 minutes at room temperature to pellet sanguineous platelet blood plasma. The resultant supernatant was again centrifuged at 1800×g for 10 minutes at 4° C. The pelleted platelets were rinsed twice with a washing buffer (50 mM Tris-hydrochloric acid buffer containing 154 mM sodium chloride and 2 mM EDTA, pH: 7.4). The platelets were then suspended in one-twentieth volume of a resuspension buffer (50 mM Tris-hydrochloric acid buffer containing 154 mM sodium chloride and 5.5 mM glucose, pH: 7.4). The platelets were then sonicated at 4° C. and centrifuged at 100,000×g for 30 minutes to obtain a supernatant as a 12-lipoxygenase enzyme solution.
The enzyme solution described above was diluted with the resuspension buffer above mentioned to prepare an assay solution so as to include about 2 mU/ml of 12-lipoxygenase. To an aliquot (300 μl) of the assay solution was added 1 μl of a 3 mM indomethacin-ethanol solution, 1 μl of an aqueous 300 mM reduced-glutathione solution, and 3 μl of varied concentrated test compounds solution in ethanol. The resultant mixture was incubated at 37° C. for 5 minutes. Subsequently, 3 μl of a 2.5 mM arachidonic acid solution in ethanol was added to incubate with for another 5 minutes at 37° C., then the reaction was ceased by the addition of 600 μl of methanol. After being centrifuged at 10,000×g for 5 minutes, 12-hydroxyeicosatetraenoic acid recovered in the supernatant was separated with a reverse phase high-performance liquid chromatography equipped with a C-18 column and measured the absorption of diene at 234 nm to quantify the activity of 12-lipoxygenase.
As test compounds were used the compounds of the present invention prepared in the same methods as in Example 4, Example 5 and Example 8 and the compounds prepared in the same methods as in Comparative Examples 1-5, and as a control was used esculetin (purchased from Tokyo Kasei), a known compound represented by the following formula: [drawing 33] and the test was conducted at varied concentrations.
The enzyme solution was prepared according to the same manner as in Test Example 1.
The inhibition assay was performed according to the same method as described in Test Example 1 except that the same samples used in measurement of the 5-lipoxygensase activity were used to estimate IC50 values. […]
They were measured in the same method as in Test Example 1.

[3] = Test Example 2, Table 2, read-out: IC50 value of 5-lipoxygenase
[4] = Test Example 2, Table 2, read-out: IC50 value of 12-lipoxygenase
[5] = Test Example 3, Table 11, value belongs to the deacylated compound, read-out: 12-lipoxygenase inhibiting activities of deacylated compounds (IC50 values)
[6] = Test Example 5, Table 22, read-out: 5-Lipoxygenase inhibiting activity IC50 value
[7] = Test Example 5, Table 22, read-out: 12-Lipoxygenase inhibiting activity IC50 value
[8] = Test Example 1, Table 1 and text, read-out: 12-lipoxygenase IC50 value

| IC50 [1, 3] | IC50 [2, 4] | SMILES | further results |
| --- | --- | --- | --- |
| 190 nM | 4.4 nM | O=c1oc2cc(O)c(O)cc2cc1-c1ccc(Br)cc1 [Example 1] |  |
| 420 nM | 22 nM | O=c1oc2cc(O)c(O)cc2cc1-c1ccsc1 [Example 16] |  |
|  |  | COc1ccc2cc(-c3ccccc3)c(=O)oc2c1OC [Comp. Example 1, reference compound] | maximum inhibition ratio of 12-lipoxygenase ([2]; listed as Comparative Example 1, 10 µM): less than 10%; inhibition at 10 µM [2]: 5% |
| 140 nM | 5.8 nM | O=c1oc2cc(O)c(O)cc2cc1-c1ccc(I)cc1 [Example 10, 3-(4-iodophenyl)-6,7-dihydroxycoumarin] | IC50 [2, 5]: 5.8 nM |
|  |  | O=c1oc2c(O)c(O)ccc2cc1-c1ccc2ccccc2c1 [Example 61] | IC50 [1, 6]: 230 nM; IC50 [2, 7]: 34 nM |
| 480 nM | 7.6 nM | O=c1oc2c(O)c(O)ccc2cc1-c1ccc(Cl)cc1 [Example 4, 3-(4-chlorophenyl)-7,8-dihydroxycoumarin] | IC50 [2, 8]: 7.6 nM and ~1 nM; IC50 [2, 5]: 7.6 nM |
| 270 nM | 13 nM | O=c1oc2cc(O)c(O)cc2cc1-c1ccc(C(F)(F)F)cc1 [Example 14, 3-(4-trifluoromethylphenyl)-6,7-dihydroxycoumarin] |  |
| 160 nM | 4.3 nM | O=c1oc2cc(O)c(O)cc2cc1-c1cccc(Cl)c1 [Example 9, 3-(3-chlorophenyl)-6,7-dihydroxycoumarin] | IC50 [2, 5]: 4.3 nM |
| 250 nM | 14 nM | CCc1ccc(-c2cc3ccc(O)c(O)c3oc2=O)cc1 [Example 19] |  |
| 260 nM | 7 nM | O=c1oc2cc(O)c(O)cc2cc1-c1ccc(Cl)cc1 [Example 8, 3-(4-chlorophenyl)-6,7-dihydroxycoumarin] | IC50 [2, 8]: 7 nM and ~1 nM; IC50 [2, 5]: 7 nM |
| 530 nM | 34 nM | O=c1oc2c(O)c(O)ccc2cc1-c1ccc([N+](=O)[O-])cc1 [Example 23, 3-(4-nitrophenyl)-7,8-dihydroxycoumarin] |  |
| 340 nM | 15 nM | Cc1ccc(-c2cc3ccc(O)c(O)c3oc2=O)o1 [Example 35] |  |
| 180 nM | 11 nM | Cc1ccc(-c2cc3cc(O)c(O)cc3oc2=O)cc1 [Example 11] |  |
| 150 nM | 5.2 nM | O=c1oc2cc(O)c(O)cc2cc1-c1cc(Br)cs1 [Example 34, 3-(4-bromothiophen-2-yl)-6,7-dihydroxycoumarin] | IC50 [2, 5]: 5.2 nM |
|  |  | O=c1oc2c(O)c(O)ccc2cc1-c1ccc(O)cc1 [Comp. Example 5, reference compound] | 12-lipoxygenase inhibitory activity (in words) [2]: decreases greatly; IC50 [2, 8]: 1100 nM |
| 360 nM | 12 nM | O=c1oc2c(O)c(O)ccc2cc1-c1cc(Br)cs1 [Example 33, 3-(4-bromothiophen-2-yl)-7,8-dihydroxycoumarin] |  |
|  |  | O=c1oc2cc(O)c(O)cc2cc1-c1csc2ccccc12 [Example 64] | IC50 [1, 6]: 180 nM; IC50 [2, 7]: 10 nM |
| 280 nM | 11 nM | Cc1cccc(-c2cc3cc(O)c(O)cc3oc2=O)c1 [Example 12] |  |
|  |  | O=c1oc2cc(O)c(O)cc2cc1-c1ccc2ccccc2c1 [Example 62] | IC50 [1, 6]: 65 nM; IC50 [2, 7]: 4.6 nM |
| 270 nM | 16 nM | O=c1oc2cc(O)c(O)cc2cc1-c1ccccc1 [Example 6, 3-phenyl-6,7-dihydroxycoumarin] |  |
|  |  | O=c1oc2c(O)c(O)ccc2c(-c2ccccc2)c1-c1ccccc1 [Comp. Example 4, reference compound] | IC50 [2, 8]: 120 nM |
| 400 nM | 8 nM | O=c1oc2cc(O)c(O)cc2cc1-c1ccc(F)cc1 [Example 7] |  |
| 660 nM | 27 nM | COc1ccc(-c2cc3ccc(O)c(O)c3oc2=O)cc1 [Example 27, 3-(4-methoxyphenyl)-7,8-dihydroxycoumarin] |  |
| 330 nM | 21 nM | O=c1oc2cc(O)c(O)cc2cc1-c1cccs1 [Example 15, 3-(thiophen-2-yl)-6,7-dihydroxycoumarin] |  |
|  |  | O=c1oc2c(O)c(O)ccc2cc1-c1csc2ccccc12 [Example 63] | IC50 [1, 6]: 190 nM; IC50 [2, 7]: 11 nM |
| 410 nM | 9.2 nM | Cc1c(-c2ccc(Cl)cc2)c(=O)oc2cc(O)c(O)cc12 [Example 5, 3-(4-chlorophenyl)-4-methyl-6,7-dihydroxycoumarin] | IC50 [2, 8]: 9.2 nM; IC50 [2, 5]: 9.2 nM |
|  |  | O=c1oc2cc(O)ccc2cc1-c1ccc(Cl)cc1 [Comp. Example 2, reference compound] | maximum inhibition ratio of 12-lipoxygenase ([2]; listed as Comparative Example 2, 10 µM): less than 10%; inhibition at 10 µM [2]: 7% |
